Assay results: the supplement of paper PMC10307832

What was measured:
Test in all cases: relative viability (nuclei count vs DMSO), 5 days (fraction); higher = more cells survive
Metformin + Lapatinib = compound: CN(C)C(=N)NC(=N)N [Metformin] + CS(=O)(=O)CCNCc1ccc(-c2ccc3ncnc(Nc4ccc(OCc5cccc(F)c5)c(Cl)c4)c3c2)o1 [Lapatinib] (partner 2 µM)
How it was run: (§1)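 The day after seeding in 1536-well plates, lung cancer cell lines were treated by pin tool with a single drug, or with a fixed anchor-drug dose together with five library-drug doses (not always all listed) in √10 steps. After 5 days, a combined fix-and-stain solution (final 0.05% Triton X-100, 1% formaldehyde, 1 ug/ml Hoechst) was added. Nuclei counted on 4× images gave relative viability as treated counts over vehicle counts, reported as the median of duplicate plates.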

Apatinib + Trametinib = compound: N#CC1(c2ccc(NC(=O)c3cccnc3NCc3ccncc3)cc2)CCCC1 [Apatinib] + CC(=O)Nc1cccc(-n2c(=O)n(C3CC3)c(=O)c3c(Nc4ccc(I)cc4F)n(C)c(=O)c(C)c32)c1 [Trametinib] (partner 0.02 µM)
How it was run: as §1

Metformin + Alpelisib = compound: CN(C)C(=N)NC(=N)N [Metformin] + Cc1nc(NC(=O)N2CCC[C@H]2C(N)=O)sc1-c1ccnc(C(C)(C)C(F)(F)F)c1 [Alpelisib] (partner 2 µM)
How it was run: as §1

Apatinib + Crizotinib = compound: N#CC1(c2ccc(NC(=O)c3cccnc3NCc3ccncc3)cc2)CCCC1 [Apatinib] + C[C@@H](Oc1cc(-c2cnn(C3CCNCC3)c2)cnc1N)c1c(Cl)ccc(F)c1Cl [Crizotinib] (partner 1 µM)
How it was run: as §1

Cell Line: NCI-H460
- relative viability (Metformin + Lapatinib; first compound 31.62 µM): 1.15
- relative viability (Metformin + Lapatinib; first compound 100 µM): 0.9
- relative viability (Metformin + Lapatinib; first compound 316.23 µM): 0.849
- relative viability (Metformin + Lapatinib; first compound 1000 µM): 1.02
- relative viability (Apatinib + Trametinib; first compound 0.08 µM): 0.119
- relative viability (Apatinib + Trametinib; first compound 0.253 µM): 0.172
- relative viability (Apatinib + Trametinib; first compound 0.8 µM): 0.223
- relative viability (Apatinib + Trametinib; first compound 2.53 µM): 0.134
- relative viability (Apatinib + Trametinib; first compound 8 µM): 0.128
- relative viability (Metformin + Alpelisib; first compound 31.62 µM): 0.471
- relative viability (Metformin + Alpelisib; first compound 100 µM): 0.534
- relative viability (Metformin + Alpelisib; first compound 316.23 µM): 0.502
- relative viability (Metformin + Alpelisib; first compound 1000 µM): 0.471
- relative viability (Apatinib + Crizotinib; first compound 0.08 µM): 1.04
- relative viability (Apatinib + Crizotinib; first compound 0.253 µM): 0.907
- relative viability (Apatinib + Crizotinib; first compound 0.8 µM): 0.727
- relative viability (Apatinib + Crizotinib; first compound 2.53 µM): 0.848
- relative viability (Apatinib + Crizotinib; first compound 8 µM): 0.857
